Experiment: gradient 5% acetonitrile 3 min, to 50% in 2 min, to 85% in 15 min, held 3 min, 100 µL/min
Settings: column: Zorbax Extend-C18 2.1 x 50 mm; eluents: water / acetonitrile, 0.1% formic acid
In short: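 Retention times come from adduct peaks that were picked computationally and then checked by hand. The standards, pure and pooled in mixtures of ~100 molecules, were run on a Zorbax Extend-C18 column (2.1 × 50 mm, 1.8 μm) at 100 μL/min with water and acetonitrile, each with 0.1% formic acid. Detection was by quadrupole time-of-flight mass spectrometry in positive and negative ionization mode, with a dead volume of 40 μL and a dwell volume of 900 μL.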

Row | Compound | RP-LC retention time
1 | COc1ccc(C(=O)N2CCC3(C2)C(=O)Nc2ccccc23)cc1 (stereo unspecified) | 683 s
2 | COc1ccc(NC(=O)Cn2nc(N3CCSCC3)c3ccccc3c2=O)cc1Cl | 949 s
3 | O=C(c1ccc2c(=O)n3c(nc2c1)CCCC3)N1CCC(Cc2ccccc2)CC1 | 878 s
4 | O=C(c1cnn2cccnc12)N1CCCC1c1cccc(F)c1 (stereo unspecified) | 754 s
5 | Cc1ccc(Cl)cc1NC(=O)N1CCN(c2ccc(=O)n(-c3ccccc3)n2)CC1 | 838 s
6 | CCOC(=O)c1c(C)[nH]c(C(=O)N2CCC(C(C)C(=O)NCc3ccc(C)cc3)CC2)c1C (stereo unspecified) | 846 s
7 | CC(C)N1C(=O)c2cccnc2Sc2cc(NC(=O)c3ccsc3)ccc21 | 832 s
8 | CCC(C)(C)NS(=O)(=O)c1cc(-c2nc(C)c(C(=O)N3CCCC3)s2)cs1 | 863 s
9 | Oc1c(C(Nc2ccccn2)c2ccccc2F)ccc2cccnc12 (stereo unspecified) | 604 s
10 | COc1ccc(N2CCN(S(=O)(=O)c3cc(-c4csc(C)n4)ccc3C)CC2)cc1 | 1130 s
11 | CCOC(=O)C1CCN(C(=O)C2CCCN2S(=O)(=O)c2cc3c(cc2Cl)NC(=O)CO3)CC1 (stereo unspecified) | 710 s
12 | Cc1ccc(-c2ncc3c(=O)n(Cc4ccc(F)cc4)c(=O)n(C)c3n2)cc1 | 1260 s
13 | O=C(CN1CCC(c2nc(-c3cccc(F)c3)no2)CC1)NC1CCCCC1 | 705 s
14 | COc1ccc(NC(=O)C2CCN(c3cc(N4CCCCC4)ncn3)CC2)cc1OC | 645 s
15 | Cc1ccc(S(=O)(=O)N2CCCC(Cn3c(C)nc4cccnc43)C2)cc1F (stereo unspecified) | 725 s
16 | COc1cccc(N2CCN(C(=O)C3CCN(c4nnc(-c5ccccc5)o4)CC3)CC2)c1 | 807 s
17 | O=C(NC1CCCCC1)C1CCCN(c2cnc3nccnc3c2)C1 (stereo unspecified) | 691 s
18 | O=C(NCc1ccc(F)cc1)c1cn2cc(Cl)ccc2n1 | 799 s
19 | CN(C)S(=O)(=O)N1CCC2(CC1)CN(c1cccc(F)c1)C2c1ccccc1 (stereo unspecified) | 1250 s
20 | O=C(C1CCCN(c2nc3cccnc3s2)C1)N1CCCCCC1 (stereo unspecified) | 795 s
21 | CCOc1nccnc1N1CCC(N(C)C(=O)Cc2cccnc2)C1 (stereo unspecified) | 630 s
22 | CCCCN1CCN(Cc2nc(-c3ccc(N4CCOCC4)nc3)no2)CC1 | 587 s

Row | Compound | RP-LC retention time
23 | O=c1c2cnn(Cc3ccccc3F)c2ncn1Cc1cccc(C(F)(F)F)c1 | 928 s
24 | COC(=O)c1ncn2c1C(=O)N(Cc1ccc(C)cc1)C(C)(C(=O)NC1CCCC1)C2 (stereo unspecified) | 766 s
25 | Cc1ccc(N2CCN(C(=O)C3CC(=O)N(c4cccc(NC(=O)C(C)C)c4)C3)CC2)cc1 (stereo unspecified) | 802 s
26 | CCc1cc(=O)n(CC(=O)Nc2ccc(C)c(C)c2)c(N2CCOCC2)n1 | 798 s
27 | CCn1cnc(S(=O)(=O)N2CCC(C(=O)Nc3ncccc3C)CC2)c1 | 570 s
28 | NC(=O)C1CCN([C@H]2CS(=O)(=O)C[C@@H]2S(=O)(=O)c2ccc(F)cc2)CC1 | 629 s
29 | Cc1ccc(C(=O)N(CCCN)[C@@H](c2nc3cc(Cl)ccc3c(=O)n2Cc2ccccc2)C(C)C)cc1 | 990 s
30 | CCOC(=O)N1CCN(C(=O)c2cn(C)nc2C)CC1 | 572 s
31 | CC(C)NC(=O)C1CCCN(C(=O)Nc2ccc(S(=O)(=O)N3CCCCCC3)s2)C1 (stereo unspecified) | 827 s
32 | Cc1ccc(-c2nnc(-c3nc(NCCc4c(C)noc4C)c4ccccc4n3)o2)cc1 | 955 s
33 | CC1CN(c2nc3c(c(=O)n(C)c(=O)n3C)n2Cc2cccc(F)c2)CC(C)O1 (stereo unspecified) | 885 s
34 | CC(C)N1C(=O)c2cccnc2Sc2cc(NC(=O)c3cc(Cl)ccc3F)ccc21 | 973 s
35 | COC(=O)c1c(C)[nH]c(C(=O)N2CCCC(C(=O)NCCC3=CCCCC3)C2)c1C (stereo unspecified) | 825 s
36 | Cc1ccc(C2(O)C(=O)N(CC(=O)Nc3ccc(F)cc3F)c3ccccc32)cc1 (stereo unspecified) | 715 s
37 | COc1cc2c(cc1OC)C(C(=O)N1CCN(C)CC1)C(c1ccc(SC)cc1)N(C)C2=O (stereo unspecified) | 612 s
38 | CN(CCc1noc(-c2ccc(C(=O)N3CCCC3)cc2)n1)C(=O)c1c(F)cccc1F | 784 s
39 | CCN1C=C(C(=O)OCc2cccc(C)c2)C(C)=NS1(=O)=O | 1030 s
40 | COc1ccc2[nH]cc(CCNC(=O)CCc3nnc(C(=O)Nc4ccccc4)s3)c2c1 | 803 s
41 | Cc1ccc(NC(=O)Cn2nc3c(Oc4ccccc4C)nccn3c2=O)c(C)c1 | 873 s
42 | Cc1cc(OCC(=O)N2CCC3(O)CCCCC3C2)c2c3c(c(=O)oc2c1)CCCC3 (stereo unspecified) | 859 s
43 | Fc1ccc(-c2nn3c(CSc4ccccc4)nnc3s2)cc1 | 967 s
44 | CCn1cc(CCNC(=O)Nc2ccccc2OC)c2cccnc21 | 718 s

Row | Compound | RP-LC retention time
45 | COc1ccc(N2CCN(c3ccc4cc(S(=O)(=O)N5CCCCC5C)ccc4n3)CC2)cc1 (stereo unspecified) | 991 s
46 | CSc1ccc(-c2nc3cc(C)ccn3c2Nc2ccccc2C)cc1 | 790 s
47 | CC(C)Cn1cc(CCNS(=O)(=O)c2ccc(Br)s2)c2cccnc21 | 995 s
48 | O=C(Cc1ccc(F)cc1)N1CCc2cc(-c3ccno3)ccc21 | 940 s
49 | Cc1ccc(F)c2c(=O)c3c([nH]c12)CCN(CC(=O)Nc1ccc(Cl)cc1)C3 | 646 s
50 | CCOc1nc2ccccc2nc1N1CCCC(C(=O)Nc2cc(Cl)ccc2C)C1 (stereo unspecified) | 1310 s
51 | COc1ccc(N2C(=O)CCS2(=O)=O)cc1S(=O)(=O)N1CCN(c2ccccn2)CC1 | 603 s
52 | O=C(Nc1cccc(C(F)(F)F)c1)c1cnc(-c2ccc(F)cc2)nc1-c1ccncc1 | 1060 s
53 | Cc1ccc2c(Nc3cccc(Cl)c3)c(C(=O)N3CCSCC3)cnc2n1 | 654 s
54 | Cc1cc(C(=O)N2CC(F)(F)C[C@H]2c2nc(C)no2)on1 | 723 s
55 | Cn1c(=O)c(N2CCC(NC(=O)Nc3ccc(F)c(Cl)c3)CC2)nc2ccccc21 | 971 s
56 | CN(Cc1cccnc1)C(=O)c1c(OCC2CC2)cc(=O)n2c1CCCCC2 | 587 s
57 | Cc1ccc(C)c(N2CCN(S(=O)(=O)c3ccc(-c4c(C)noc4C)cc3)CC2)c1 | 1250 s
58 | Cc1ccc(S(=O)(=O)N2C(=O)CCC2C(=O)NCc2nc(-c3ccc(Cl)cc3)no2)cc1 (stereo unspecified) | 951 s
59 | Cc1ccc(NC(=O)CSC2=C(C#N)C(c3cccs3)CC(=O)N2)cc1Cl (stereo unspecified) | 915 s
60 | Cc1nnc(N2CCCC(C(=O)NCCc3cccs3)C2)c2nn(-c3ccc(Cl)cc3)c(C)c12 (stereo unspecified) | 762 s
61 | Cc1ccc(S(=O)(=O)N2CCC(CCC(=O)O)CC2)cc1 | 799 s
62 | O=C(CCc1ccc2nc[nH]c2c1)Nc1ccc2c(c1)OCCO2 | 591 s
63 | NS(=O)(=O)c1cccnc1Nc1ccc2c(c1)OCCO2 | 735 s
64 | CC1(C(=O)NCc2ccccc2)CCN(S(=O)(=O)c2ccccc2C(F)(F)F)CC1 | 970 s
65 | CCOc1ccc(CNC(=O)C2=C3CCCN3c3ccc(F)cc3S2(=O)=O)cc1 | 892 s
66 | COc1ccccc1Cc1noc(C2CN(C(=O)c3cncc(Br)c3)C2)n1 | 777 s

Row | Compound | RP-LC retention time
67 | O=C(NC1CC1)c1c2c(nc3ccc(F)cc13)CCCC2 | 610 s
68 | CCn1cc(CCN2CCN(S(=O)(=O)c3ccc(C)cc3)CC2)c2cccnc21 | 652 s
69 | O=C(CCc1nc(CSc2nc3ccccc3o2)no1)Nc1nc(-c2ccccc2)cs1 | 1030 s
70 | Cc1cc2oc(C(=O)Nc3ccccc3[N+](=O)[O-])c(C)c2cc1C | 1090 s
71 | CCN1CCN(C(=O)CC2COc3ccc(Cl)cc3N2Cc2ccccc2)CC1 (stereo unspecified) | 730 s
72 | Cc1nc(C)c(C(=O)N2CCCC(c3nnc(-c4ccc5c(c4)OCO5)o3)C2)s1 (stereo unspecified) | 669 s
73 | COC(=O)c1ncn2c1C(=O)N(Cc1ccc(F)cc1Cl)C(C)(C(=O)NCc1ccccc1)C2 (stereo unspecified) | 771 s
74 | COc1cccc(CNC(=O)Cn2c(=O)c(CCC(=O)NCC(C)C)nc3ccccc32)c1OC | 757 s
75 | Cc1ccnc(N2CCC(C(=O)NCCc3ccco3)CC2)n1 | 640 s
76 | CCc1cnc2c(c1SCC(=O)N1CCCC1)c(=O)n(C)c(=O)n2C | 732 s
77 | O=C(NCc1cccc2ccccc12)NCC1CCN(C(=O)COc2ccccc2)CC1 | 770 s
78 | CCSc1nnc(NC(=O)Cn2nc(-c3ccncc3)ccc2=O)s1 | 561 s
79 | N#Cc1ccc(Cl)cc1NC(=O)c1cccn(Cc2cccc(C(F)(F)F)c2)c1=O | 1090 s
80 | COc1ccc(-c2nc(CNC(=O)c3coc(-c4ccccc4)n3)no2)cc1 | 950 s
81 | CCCCn1c(=O)c2ccccc2n(Cc2nc(-c3cc(OC)cc(OC)c3)no2)c1=O | 1160 s
82 | O=C(Nc1ccccc1F)N1CCC(n2cnc3cc(Cl)ccc3c2=O)CC1 | 811 s
83 | CCN1CCN(CCCNC(=O)c2ccc(CS(=O)c3ccc(Cl)cc3)o2)CC1 (stereo unspecified) | 569 s
84 | O=C(CSc1ccc(N2CCCC(C(=O)NC3CC3)C2)nn1)Nc1ccc(Cl)cc1F (stereo unspecified) | 700 s
85 | COc1ccc(-c2nc(Cc3noc(-c4ccccc4F)n3)c(C)o2)cc1 | 1080 s
86 | O=C(c1ccn2c(-c3cccc(Cl)c3)nnc2c1)N1CCN(c2ccccn2)CC1 | 608 s
